Experimental data: ChEMBL document CHEMBL3414447, “Structure-guided design of a series of MCL-1 inhibitors with high affinity and selectivity” (J Med Chem, 2015)
Values belong to the compound of their own block, whether it stands above or below them. Calls of active or inactive are those of the source. The calls are words filed in the database; no cut-off is given here.

Experiments:
[1] = target: T1, Induced myeloid leukemia cell differentiation protein Mcl-1 (Homo sapiens, UniProt Q07820)
Description: Displacement of fluorescent labeled NOXA peptide from recombinant human MCL1 by fluorescence polarization assay in presence of 1% human serum

[2] = target: T1, Induced myeloid leukemia cell differentiation protein Mcl-1; remark: listed apart in the source
Description: (§1) Displacement of fluorescent labeled NOXA peptide from recombinant human MCL1 by fluorescence polarization assay

[3] = target: T1, Induced myeloid leukemia cell differentiation protein Mcl-1; remark: listed apart in the source
[4] = target: T1, Induced myeloid leukemia cell differentiation protein Mcl-1; remark: listed apart in the source
Bcl-2-like protein 2 = target: T2, Bcl-2-like protein 2 (Homo sapiens, UniProt Q92843); test: Inhibition of BCL-W (unknown origin) after 1 hr by TR-FRET assay
T2 sequence (Q92843 whole entry): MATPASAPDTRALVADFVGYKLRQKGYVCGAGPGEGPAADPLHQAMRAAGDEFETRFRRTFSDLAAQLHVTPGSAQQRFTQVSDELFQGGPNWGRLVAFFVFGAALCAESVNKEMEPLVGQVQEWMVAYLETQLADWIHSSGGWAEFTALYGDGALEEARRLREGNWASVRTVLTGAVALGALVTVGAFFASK

Bcl-2-related protein A1 = target: T3, Bcl-2-related protein A1 (Homo sapiens, UniProt Q16548); test: Inhibition of BCL2-A1 (unknown origin) after 1 hr by TR-FRET assay
T3 sequence (Q16548 whole entry): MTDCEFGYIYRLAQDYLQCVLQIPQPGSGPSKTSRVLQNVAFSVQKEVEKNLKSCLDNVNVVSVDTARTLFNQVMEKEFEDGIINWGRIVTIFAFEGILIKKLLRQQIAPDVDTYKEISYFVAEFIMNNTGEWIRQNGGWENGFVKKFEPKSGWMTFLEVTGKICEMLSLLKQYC

[5] = Fraction unbound in human plasma after 4.5 hrs by equilibrium dialysis method; format: ADME, cell-free
[6] = target: T1, Induced myeloid leukemia cell differentiation protein Mcl-1; test: Inhibition of MCL-1 in human BXPC3 cells assessed as reduction of navitoclax EC50 at 20 uM after 72 hrs by CellTiter-Glo assay in presence of 10% fetal bovine serum; format: cell-based; conditions: BXPC-3
[7] = target: T4, Apoptosis regulator Bcl-2 (Homo sapiens, UniProt P10415)
[8] = target: T1, Induced myeloid leukemia cell differentiation protein Mcl-1; test: Inhibition of MCL-1 in human H929 cells assessed as induction of caspase3/7 activation after 4 hrs by caspase-Glo 3/7 assay in presence of 0.1 to 10% fetal bovine serum; format: cell-based
Bcl-2-like protein 1 [9] = target: T5, Bcl-2-like protein 1 (Homo sapiens, UniProt Q07817)
[10] = target: T1, Induced myeloid leukemia cell differentiation protein Mcl-1; test: Inhibition of MCL-1 in human H929 cells assessed as loss in cell viability after 4 hrs by CellTiter-Glo assay in presence of 0.1 to 10% fetal bovine serum; format: cell-based
[11] = target: T1, Induced myeloid leukemia cell differentiation protein Mcl-1; remark: listed apart in the source
Description: as §1

Albumin = Albumin (Homo sapiens, UniProt P02768)
Description: Displacement of probe S1 from recombinant human serum albumin domain 3 after 5 mins by fluorescence polarization assay

[12] = target: T1, Induced myeloid leukemia cell differentiation protein Mcl-1; test: Ratio of Ki(app) for MCL1 (unknown origin) by TR-FRET assay in presence of 10% human serum to Ki(app) for MCL1 (unknown origin) by TR-FRET assay in absence of 10% human serum
Bcl-2-like protein 1 [13] = target: T5, Bcl-2-like protein 1; test: Inhibition of BCL-XL (unknown origin) by fluorescence polarization assay
[14] = target: T1, Induced myeloid leukemia cell differentiation protein Mcl-1; test: Displacement of fluorescent labeled NOXA peptide from recombinant MCL1 (unknown origin) after 15 mins by fluorescence polarization assay
[15] = target: T4, Apoptosis regulator Bcl-2; test: Inhibition of BCL-2 (unknown origin) by fluorescence polarization assay

Sequence of Albumin (P02768 whole entry): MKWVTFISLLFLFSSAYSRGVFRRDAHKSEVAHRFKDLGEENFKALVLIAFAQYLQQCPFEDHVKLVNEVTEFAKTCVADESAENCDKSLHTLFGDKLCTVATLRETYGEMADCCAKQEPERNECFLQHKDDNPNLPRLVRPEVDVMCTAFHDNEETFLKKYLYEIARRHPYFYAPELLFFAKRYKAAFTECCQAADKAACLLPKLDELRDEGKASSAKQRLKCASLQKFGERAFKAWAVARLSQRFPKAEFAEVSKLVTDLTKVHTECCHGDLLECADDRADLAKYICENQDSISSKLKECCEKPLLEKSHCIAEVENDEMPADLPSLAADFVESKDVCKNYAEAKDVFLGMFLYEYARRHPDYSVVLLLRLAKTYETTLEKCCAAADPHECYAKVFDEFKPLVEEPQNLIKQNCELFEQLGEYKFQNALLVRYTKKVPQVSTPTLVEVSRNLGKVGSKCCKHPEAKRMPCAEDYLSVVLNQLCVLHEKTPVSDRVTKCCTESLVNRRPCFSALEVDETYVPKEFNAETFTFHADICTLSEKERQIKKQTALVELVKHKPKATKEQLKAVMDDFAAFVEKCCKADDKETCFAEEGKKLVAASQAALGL
T1 sequence (Q07820 whole entry): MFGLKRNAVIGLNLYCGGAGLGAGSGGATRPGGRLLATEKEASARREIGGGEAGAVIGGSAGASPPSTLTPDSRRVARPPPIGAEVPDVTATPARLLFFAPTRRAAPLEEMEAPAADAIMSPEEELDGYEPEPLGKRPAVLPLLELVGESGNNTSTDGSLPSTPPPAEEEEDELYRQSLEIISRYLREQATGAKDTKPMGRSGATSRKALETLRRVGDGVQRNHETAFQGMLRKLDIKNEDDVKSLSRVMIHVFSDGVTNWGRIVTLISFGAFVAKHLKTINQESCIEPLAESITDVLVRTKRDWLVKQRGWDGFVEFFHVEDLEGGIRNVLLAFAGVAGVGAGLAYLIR
T5 sequence (Q07817 whole entry): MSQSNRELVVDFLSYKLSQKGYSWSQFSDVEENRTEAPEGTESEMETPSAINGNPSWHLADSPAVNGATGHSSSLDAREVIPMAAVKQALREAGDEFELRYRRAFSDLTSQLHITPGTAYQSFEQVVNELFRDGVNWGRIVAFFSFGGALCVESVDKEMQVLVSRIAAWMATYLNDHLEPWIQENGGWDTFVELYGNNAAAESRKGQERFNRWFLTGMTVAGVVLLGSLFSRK
T4 sequence (P10415 whole entry): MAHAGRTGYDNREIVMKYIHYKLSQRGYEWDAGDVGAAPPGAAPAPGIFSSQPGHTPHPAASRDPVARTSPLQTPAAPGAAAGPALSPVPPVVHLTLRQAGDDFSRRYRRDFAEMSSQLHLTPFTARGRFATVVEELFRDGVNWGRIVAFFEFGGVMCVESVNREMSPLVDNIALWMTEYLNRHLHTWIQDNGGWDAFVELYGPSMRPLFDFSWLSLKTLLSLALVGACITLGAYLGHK

SMILES: CC(=O)N1CCN(c2ccc(OCc3nn(C)c(C)c3-c3cccc4c(CCCOc5cccc6ccccc56)c(C(=O)O)n(Cc5cccnc5)c34)cc2)CC1
Ki [3]: 98 nM
Ki [4]: 1.8 nM

SMILES: Cc1nn(C)c(COc2ccc(N3CCN(S(=O)(=O)N(C)C)CC3)cc2)c1-c1cccc2c(CCCOc3cccc4ccccc34)c(C(=O)O)n(CCN3CCOCC3)c12
Ki [3]: 7.9 nM
Ki [4]: 0.45 nM

SMILES: Cc1nn(C)c(COc2ccc(N3CCN(S(C)(=O)=O)CC3)cc2)c1-c1cccc2c(CCCOc3cccc4ccccc34)c(C(=O)O)n(CCN3CCOCC3)c12
Ki (Bcl-2-like protein 2): > 660 nM
Ki (Bcl-2-related protein A1): > 660 nM
fraction unbound at 4.5 h [5]: < 0.01
fold change (FC) [6]: 45
Ki [7]: > 660 nM
inhibition [8]: Active
Ki (Bcl-2-like protein 1 [9]): > 660 nM
inhibition [10]: Active

SMILES: Cc1nn(C)c(C)c1-c1cccc2c(CCCOc3cccc4ccccc34)c(C(=O)O)n(CCN3CCOCC3)c12
Ki (Albumin): 1450 nM
Ki [3]: 35 nM
Ki [1]: 0.004 µM
Ki [2]: < 10 nM
Ki [4]: 1.5 nM

SMILES: O=C(O)c1[nH]c2ccccc2c1CCCO
inhibition [11]: inactive
Ki (Albumin): > 100000 nM

SMILES: CCS(=O)(=O)N1CCN(c2ccc(OCc3c(-c4cccc5c(CCCOc6cccc7ccccc67)c(C(=O)O)n(CCN6CCOCC6)c45)c(C)nn3C)cc2)CC1
Ki [3]: 4.9 nM
Ki [4]: 0.2 nM

SMILES: CCOC(=O)c1c(CCCOc2cccc3ccccc23)c2cccc(-c3c(C)nn(C)c3COc3ccc(N4CCNCC4)cc3)c2n1CCN1CCOCC1
Ki [3]: 12 nM
Ki [4]: 2 nM

SMILES: Cc1nn(C)c(COc2ccc(N3CCN(S(=O)(=O)N4CCOCC4)CC3)cc2)c1-c1cccc2c(CCCOc3cccc4ccccc34)c(C(=O)O)n(CCN3CCOCC3)c12
Ki [3]: 12.3 nM
Ki [4]: 0.48 nM

SMILES: CC(=O)N1CCN(c2ccc(OCc3c(-c4cccc5c(CCCOc6cccc7ccccc67)c(C(=O)O)n(CCN6CCOCC6)c45)c(C)nn3C)cc2)CC1
Ki [3]: 2.7 nM
Ki [4]: 0.24 nM
Ratio Ki(app) [12]: 10

SMILES: CCCS(=O)(=O)N1CCN(c2ccc(OCc3c(-c4cccc5c(CCCOc6cccc7ccccc67)c(C(=O)O)n(CCN6CCOCC6)c45)c(C)nn3C)cc2)CC1
Ki [3]: 8.8 nM
Ki [4]: 0.31 nM

SMILES: O=C(O)c1[nH]c2ccccc2c1CCCCC1CCCCC1
Ki (Bcl-2-like protein 1 [13]): > 10 µM
Ki [14]: 4.4 µM
Ki [15]: > 10 µM

Other lines, results leading:

Ki [1]: 8.2 µM
Ki [2]: 160 nM
SMILES: Cc1cccc(-c2cccc3c(CCCOc4cccc5ccccc45)c(C(=O)O)[nH]c23)c1

Ki [1]: 9.1 µM
Ki [2]: 150 nM
SMILES: Cc1ccc(-c2cccc3c(CCCOc4cccc5ccccc45)c(C(=O)O)[nH]c23)cc1

Ki [3]: 114 nM
Ki [4]: 2.3 nM
SMILES: Cc1nn(C)c(COc2ccccc2)c1-c1cccc2c(CCCOc3cccc4ccccc34)c(C(=O)O)n(CCN3CCOCC3)c12

inhibition [11]: inactive
SMILES: Cc1ccccc1-c1cccc2c(CCCO)c(C(=O)O)[nH]c12

Ki [1]: 5.3 µM
Ki [2]: 130 nM
SMILES: O=C(O)c1[nH]c2c(-c3ccccc3)cccc2c1CCCOc1cccc2ccccc12

Ki (Albumin): < 30 nM
Ki [1]: 8.6 µM
Ki [2]: 35 nM
SMILES: Cc1ccccc1-c1cccc2c(CCCOc3cccc4ccccc34)c(C(=O)O)[nH]c12
